We go through one compound from US20200171056A1, “SULFONYLUREA COMPOUNDS IN THE TREATMENT OF DISEASE ASSOCIATED WITH UV-INDUCED DAMAGE” (CeMM - Forschungszentrum für Molekulare Medizin GmbH, priority 2017, published 2020).

Holding throughout (format): cell-based, human
For experiment [1], the system named is WT and ΔXPA cells. The experiment can be described thus: Survival after illudin S treatment. The note with it: 0.5 mM acetohexamide for 6 hours, then illudin S (FIG. 2A, 7B). The protocol: A. Dose-response curve of WT and ΔXPA cells treated with or without 0.5 mM acetohexamide for 6 hours, followed by illudin S treatment. Survival was assessed after 3 days using CellTiter-Glo. B. Colony formation of WT fibroblasts (BJ) and XPA-patient derived fibroblasts (XPA^Δ/Δ) treated with or without 0.5 mM acetohexamide for 6 hours, followed by UV irradiation (as indicated) and then kept in culture for 10 days. C. WT BJ and XPA^Δ/Δ fibroblastoid cells were treated with 0.5 mM acetohexamide for 6 hours, irradiated with 15 J/M^2 and then fixed and immunostained with an anti-cyclobutane pyrimidine dimer (CPD) antibody at the indicated times. Nuclear DNA was counterstained with DAPI. Scale bar, 10 μm. D. Scatter plot displaying the quantification of CPD intensities per nucleus of WT and XPA^Δ/Δ cells in the presence or absence of 0.5 mM acetohexamide, of more than 100 cells. Red lines within each column represent median intensities. A.u.=arbitrary unit.
A. Dose-response curve of WT and ΔXPA cells treated with or without 0.5 mM acetohexamide for the indicated times, followed by UV irradiation. Survival was assessed after 3 days, using CellTiter-Glo. […] WT and ΔXPA cells treated with or without 0.5 mM acetohexamide for the indicated times, followed by 15 J/M^2 irradiation and analyzed by dot blot for the presence of CPDs in genomic DNA. […] D. Quantification of the intensities of C. […]

In experiment [2] the test system is WT and ΔXPA cells. The experiment can be described thus: Cell cycle analysis (propidium iodide, FACS). Conditions: 0.5 mM for 6 hours, WT vs ΔXPA (FIG. 8A). The protocol:
A. WT and ΔXPA cells were either treated with DMSO or 0.5 mM acetohexamide for 6 hours. Cell cycle profiles were determined using propidium iodide (P1) staining followed by FACS analysis. B-D. Survival of WT HAP1 cells treated with either DMSO or 0.5 mM acetohexamide for 6 hours, followed by exposure to the indicated DNA damaging agents (MMC: mitomycin C; HU: hydroxyl urea; MMS: methyl methanesulfonate). Survival was assessed after 3 days using CellTitre-Glo. E. Cell viability of WT cells treated either with 0.5 mM acetohexamide or 30 μM N-acetylcysteine (NAC) for 6 hours, followed by 30 J/M^2 UV exposure.
Cells were treated with either DMSO or acetohexamide as indicated. Cell cycle stages were identified using propidium iodide (PI) staining. Briefly, cells were harvested, resuspended in PBS and fixed overnight with cold 70% ethanol. After centrifugation, ethanol was removed and cells were resuspended in PBS containing 1 μg/mL RNase A and […]. Finally, cells were analyzed on a FACScalibur flow cytometer. Following cell acquisition, analysis was performed using FlowJo software (Tree Star).

The next experiment deals with MUTYH. The experiment can be described thus: MUTYH protein levels by immunoblotting. Conditions: WT HAP1, 0.5 mM for 6 hours, alone or with 10 μM MG132 (FIG. 4A-B). The protocol: A. WT HAP1 cells were treated with or without 0.5 mM acetohexamide for 6 hours, then released into compound-free media for the indicated time points and immunoblotted with an anti-MUTYH antibody. ACTIN was used as a loading control. B. WT HAP1 cells were either treated with 0.5 mM acetohexamide alone or with 10 μM of the proteasome inhibitor MG132 for 6 hours and analyzed by immunoblotting using an anti-MUTYH antibody. C. Left panel: colony formation of the WT, ΔXPA or ΔXPA-MUTYH HAP1 cells treated with or without 0.5 mM acetohexamide for 6 hours, followed by 15 J/M^2 UV irradiation and then kept in culture for 10 days. Right panel: Macroscopic colonies were stained with crystal violet and quantified. D. WT, ΔXPA or ΔXPA-MUTYH HAP1 cells were treated with 15 J/M^2 UV or left untreated, then kept in culture for the indicated recovery times and analyzed by dot blot for the presence of CPDs within genomic DNA. E. Number of chromosomal abnormalities per metaphase spread of ΔXPA or ΔXPA-MUTYH HAP1 exposed to different doses of UV irradiation. Data in (E) represented as mean±SEM. F. Survival of WT and ΔMULE HAP1 cells exposed to UV irradiation at different doses and assessed after 3 days, using CellTitre-Glo.
Cells were lysed in lysis buffer composed of RIPA lysis buffer supplemented with protease inhibitors (Sigma) and phosphatase inhibitors (Sigma, NEB). […]

As for `CC(=O)c1ccc(S(=O)(=O)NC(=O)NC2CCCCC2)cc1` [acetohexamide], the “cellular survival following illudin S treatment” value in the experiment on WT and ΔXPA cells [1] is recorded as “could increase cellular survival following illudin S treatment”. Moreover, the cell cycle profiles entry with WT and ΔXPA cells [2] is “no difference between wildtype or ΔXPA cells upon acetohexamide treatment”. The MUTYH protein levels result with MUTYH was “decrease in MUTYH protein levels in a proteasome dependent manner”.
